Reference: PMC8909834, “An Orally Bioavailable and Highly Efficacious Inhibitor of CDK9/FLT3 for the Treatment of Acute Myeloid Leukemia” (Cancers, 2022)

Columns and labels:
Assay in all cases: Kinase Hotspot radiolabel assay
Assay type in all cases: biochemical
Conditions in all cases: read-out: % Residual Activity
YSK4/MAP3K19 = target: T1, YSK4/MAP3K19 (Homo sapiens, UniProt Q56UN5)
T1 construct: purchased Reaction Biology Corporation (Kinase HotSpot)
Procedure: (§1) Kinase assay. The ADP Glo^TM kinase assay (Promega, Madison, WI, USA) was used to assess the inhibition by CDDD11-8 of CDKs 1, 2, 4, 6, 7, and 9, as well as the mutant isoforms of FLT3. The assays were performed in accord with the manufacturer’s protocol (Promega) as described previously. Briefly, serial three-fold dilutions of CDDD11-8 were prepared in 100% DMSO from a 2 mM stock solution, followed by 1:40 dilution into Milli-Q water. Subsequently, 1 µL of each sample was incubated with 4 µL of kinase mixture containing a particular CDK enzyme and its substrate, standard kinase buffer [3 mM MgCl2, 50 mM HEPES-NaOH pH 7.5, 3 mM MnCl2, 3 µM Na-orthovanadate, 1 mM dithiothreitol (DTT)], kinase dilution buffer (containing 0.25 mg/mL PEG20,000, 50 mM HEPES-NaOH pH 7.5, 1 mM DTT), and ATP at 37 °C for 30 to 40 min. The final reaction mixture contained 0.5% DMSO in all samples, and the applied kinase concentrations were 1, 1, 10, 40, 20, and 50 nM for CDK1, 2, 4, 6, 7, and 9, respectively. The reaction was stopped by adding ADP-Glo reagent and the mixture was incubated further in the dark at room temperature for 40 min. As a final step, kinase detection reagent was added to each mixture and incubated at room temperature for 30 to 60 min. Luminescence was read using an EnVision® multilabel plate reader (PerkinElmer, Beaconsfield, UK), and half-maximum inhibitory concentrations (IC50) were calculated using a non-linear regression model with a variable slope, plotting log (inhibitor concentration) vs. response using the following formula: Ar%=Bottom+Top−Bottom/1+Inhibitor Concentration/IC50^HillSlope where the relative activity Ar (%) is the signal relative to the controls, IC50 is the half maximum concentration, Hillslope is the steepness of the dose-response curve, Top and Bottom are plateaus reflecting the maximum and minimum in responses on the Y-axis (GraphPad Prism version 7, San Diego, CA, USA). Ki values were calculated from the IC50 using the Cheng−Prusoff equation [32]. Extensive specificity assessment was carried out by Reaction Biology Corporation (Malvern, PA, USA) with 369 kinases using 1 µM CDDD11-8 concentration in a Kinase Hotspot radiolabel assay (for experimental details, please see (Reaction Biology https://www.reactionbiology.com/). Subsequently, Ki values were determined for kinases with greater than 90% inhibition.

RSK4 = target: T2, RSK4 (Homo sapiens, UniProt Q9UK32)
T2 construct: purchased Reaction Biology Corporation (Kinase HotSpot)
Procedure: as §1

EGFR = target: T3, EGFR (Homo sapiens, UniProt P00533)
T3 construct: purchased Reaction Biology Corporation (Kinase HotSpot)
Procedure: as §1

CDK1/cyclin A = target: T4, CDK1/cyclin A (Homo sapiens, UniProt P06493)
T4 construct: purchased Reaction Biology Corporation (Kinase HotSpot)
Procedure: as §1

CHK1 = target: T5, CHK1 (Homo sapiens, UniProt O14757)
T5 construct: purchased Reaction Biology Corporation (Kinase HotSpot)
Procedure: as §1

MLK2/MAP3K10 = target: T6, MLK2/MAP3K10 (Homo sapiens, UniProt Q02779)
T6 construct: purchased Reaction Biology Corporation (Kinase HotSpot)
Procedure: as §1

MNK2 = target: T7, MNK2 (Homo sapiens, UniProt Q9HBH9)
T7 construct: purchased Reaction Biology Corporation (Kinase HotSpot)
Procedure: as §1

CAMKK1 = target: T8, CAMKK1 (Homo sapiens, UniProt Q8N5S9)
T8 construct: purchased Reaction Biology Corporation (Kinase HotSpot)
T8 sequence (Q8N5S9 whole entry): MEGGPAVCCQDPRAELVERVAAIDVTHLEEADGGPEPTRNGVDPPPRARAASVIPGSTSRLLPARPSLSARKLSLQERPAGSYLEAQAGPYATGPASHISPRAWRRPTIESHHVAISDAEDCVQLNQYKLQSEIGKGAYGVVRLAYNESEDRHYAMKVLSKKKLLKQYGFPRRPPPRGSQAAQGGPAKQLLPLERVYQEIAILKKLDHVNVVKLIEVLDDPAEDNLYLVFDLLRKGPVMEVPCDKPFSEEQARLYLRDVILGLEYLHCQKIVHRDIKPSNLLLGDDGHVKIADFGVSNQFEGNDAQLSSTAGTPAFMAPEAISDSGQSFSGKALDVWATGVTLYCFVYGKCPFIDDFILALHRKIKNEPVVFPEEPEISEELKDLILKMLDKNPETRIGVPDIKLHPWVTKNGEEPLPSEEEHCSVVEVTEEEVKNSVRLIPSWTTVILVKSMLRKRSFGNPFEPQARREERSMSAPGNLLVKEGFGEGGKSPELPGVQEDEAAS
Procedure: as §1

CK2a = target: T9, CK2a (Homo sapiens, UniProt P68400)
T9 construct: purchased Reaction Biology Corporation (Kinase HotSpot)
Procedure: as §1

GSK3b = target: T10, GSK3b (Homo sapiens, UniProt P49841)
T10 construct: purchased Reaction Biology Corporation (Kinase HotSpot)
Procedure: as §1

RIPK4 = target: T11, RIPK4 (Homo sapiens, UniProt P57078)
T11 construct: purchased Reaction Biology Corporation (Kinase HotSpot)
Procedure: as §1

WNK1 = target: T12, WNK1 (Homo sapiens, UniProt Q9H4A3)
T12 construct: purchased Reaction Biology Corporation (Kinase HotSpot)
Procedure: as §1

MRCKb/CDC42BPB = target: T13, MRCKb/CDC42BPB (Homo sapiens, UniProt Q9Y5S2)
T13 construct: purchased Reaction Biology Corporation (Kinase HotSpot)
Procedure: as §1

CAMK2d = target: T14, CAMK2d (Homo sapiens, UniProt Q13557)
T14 construct: purchased Reaction Biology Corporation (Kinase HotSpot)
T14 sequence (Q13557 whole entry): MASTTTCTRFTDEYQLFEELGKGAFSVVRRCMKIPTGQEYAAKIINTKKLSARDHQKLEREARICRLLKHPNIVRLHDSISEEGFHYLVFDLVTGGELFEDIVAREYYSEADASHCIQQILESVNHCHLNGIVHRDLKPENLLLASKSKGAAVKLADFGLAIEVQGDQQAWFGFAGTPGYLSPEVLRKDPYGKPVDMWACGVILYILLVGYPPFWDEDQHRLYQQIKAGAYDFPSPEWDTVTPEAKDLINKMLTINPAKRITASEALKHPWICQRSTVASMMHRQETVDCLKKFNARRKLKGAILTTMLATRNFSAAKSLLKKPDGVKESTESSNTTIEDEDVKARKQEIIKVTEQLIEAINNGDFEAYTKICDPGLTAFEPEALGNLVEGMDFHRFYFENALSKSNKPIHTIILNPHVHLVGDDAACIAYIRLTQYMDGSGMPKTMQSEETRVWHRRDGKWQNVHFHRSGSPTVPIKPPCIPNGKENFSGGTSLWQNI
Procedure: as §1

DAPK2 = target: T15, DAPK2 (Homo sapiens, UniProt Q9UIK4)
T15 construct: purchased Reaction Biology Corporation (Kinase HotSpot)
Procedure: as §1

ROCK1 = target: T16, ROCK1 (Homo sapiens, UniProt Q13464)
T16 construct: purchased Reaction Biology Corporation (Kinase HotSpot)
Procedure: as §1

DRAK1/STK17A = target: T17, DRAK1/STK17A (Homo sapiens, UniProt Q9UEE5)
T17 construct: purchased Reaction Biology Corporation (Kinase HotSpot)
T17 sequence (Q9UEE5 whole entry): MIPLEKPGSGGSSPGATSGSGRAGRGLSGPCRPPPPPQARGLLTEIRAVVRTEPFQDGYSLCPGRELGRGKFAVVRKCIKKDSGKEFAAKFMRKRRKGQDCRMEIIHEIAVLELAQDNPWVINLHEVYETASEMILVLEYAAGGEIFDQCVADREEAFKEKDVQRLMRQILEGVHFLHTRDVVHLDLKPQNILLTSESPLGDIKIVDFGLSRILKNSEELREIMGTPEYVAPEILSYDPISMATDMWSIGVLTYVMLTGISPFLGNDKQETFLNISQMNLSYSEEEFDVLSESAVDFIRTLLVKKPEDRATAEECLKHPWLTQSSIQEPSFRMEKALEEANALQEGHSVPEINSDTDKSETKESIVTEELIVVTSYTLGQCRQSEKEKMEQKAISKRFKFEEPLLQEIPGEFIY
Procedure: as §1

KHS/MAP4K5 = target: T18, KHS/MAP4K5 (Homo sapiens, UniProt Q9Y4K4)
T18 construct: purchased Reaction Biology Corporation (Kinase HotSpot)
Procedure: as §1

EPHA8 = target: T19, EPHA8 (Homo sapiens, UniProt P29322)
T19 construct: purchased Reaction Biology Corporation (Kinase HotSpot)
Procedure: as §1

JAK1 = target: T20, JAK1 (Homo sapiens, UniProt P23458)
T20 construct: purchased Reaction Biology Corporation (Kinase HotSpot)
T20 sequence (P23458 whole entry): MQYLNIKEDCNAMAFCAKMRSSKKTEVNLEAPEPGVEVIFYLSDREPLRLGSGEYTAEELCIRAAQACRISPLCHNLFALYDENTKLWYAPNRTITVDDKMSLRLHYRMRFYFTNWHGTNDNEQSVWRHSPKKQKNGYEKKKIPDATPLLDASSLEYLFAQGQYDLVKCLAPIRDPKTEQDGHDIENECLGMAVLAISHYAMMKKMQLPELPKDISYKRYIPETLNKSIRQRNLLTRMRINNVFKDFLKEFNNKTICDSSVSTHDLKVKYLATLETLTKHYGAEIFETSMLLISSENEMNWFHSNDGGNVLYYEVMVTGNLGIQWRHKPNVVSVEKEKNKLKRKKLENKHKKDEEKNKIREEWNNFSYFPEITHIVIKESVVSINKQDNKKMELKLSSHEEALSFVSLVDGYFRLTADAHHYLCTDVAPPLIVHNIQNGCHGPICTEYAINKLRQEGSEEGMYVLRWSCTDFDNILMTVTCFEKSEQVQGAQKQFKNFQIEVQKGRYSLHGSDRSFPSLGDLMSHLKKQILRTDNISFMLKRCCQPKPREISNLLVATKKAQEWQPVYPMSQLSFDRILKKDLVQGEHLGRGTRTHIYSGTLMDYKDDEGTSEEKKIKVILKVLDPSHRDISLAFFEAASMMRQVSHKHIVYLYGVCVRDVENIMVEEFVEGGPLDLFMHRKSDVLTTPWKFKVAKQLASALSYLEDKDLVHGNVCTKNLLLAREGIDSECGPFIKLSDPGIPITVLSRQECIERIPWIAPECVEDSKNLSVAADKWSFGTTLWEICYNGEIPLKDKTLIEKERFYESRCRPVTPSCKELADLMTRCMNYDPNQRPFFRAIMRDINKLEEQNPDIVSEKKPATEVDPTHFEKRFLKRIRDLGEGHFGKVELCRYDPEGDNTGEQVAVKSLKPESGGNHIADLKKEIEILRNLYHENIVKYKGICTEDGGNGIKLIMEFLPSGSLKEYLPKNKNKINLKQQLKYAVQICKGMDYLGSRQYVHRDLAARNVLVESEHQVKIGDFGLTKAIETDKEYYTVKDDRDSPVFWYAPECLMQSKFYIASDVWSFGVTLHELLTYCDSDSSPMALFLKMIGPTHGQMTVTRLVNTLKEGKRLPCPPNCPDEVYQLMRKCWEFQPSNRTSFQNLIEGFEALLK
Procedure: as §1

SRPK2 = target: T21, SRPK2 (Homo sapiens, UniProt P78362)
T21 construct: purchased Reaction Biology Corporation (Kinase HotSpot)
Procedure: as §1

ERN1/IRE1 = target: T22, ERN1/IRE1 (Homo sapiens, UniProt O75460)
T22 construct: purchased Reaction Biology Corporation (Kinase HotSpot)
T22 sequence (O75460 19-977): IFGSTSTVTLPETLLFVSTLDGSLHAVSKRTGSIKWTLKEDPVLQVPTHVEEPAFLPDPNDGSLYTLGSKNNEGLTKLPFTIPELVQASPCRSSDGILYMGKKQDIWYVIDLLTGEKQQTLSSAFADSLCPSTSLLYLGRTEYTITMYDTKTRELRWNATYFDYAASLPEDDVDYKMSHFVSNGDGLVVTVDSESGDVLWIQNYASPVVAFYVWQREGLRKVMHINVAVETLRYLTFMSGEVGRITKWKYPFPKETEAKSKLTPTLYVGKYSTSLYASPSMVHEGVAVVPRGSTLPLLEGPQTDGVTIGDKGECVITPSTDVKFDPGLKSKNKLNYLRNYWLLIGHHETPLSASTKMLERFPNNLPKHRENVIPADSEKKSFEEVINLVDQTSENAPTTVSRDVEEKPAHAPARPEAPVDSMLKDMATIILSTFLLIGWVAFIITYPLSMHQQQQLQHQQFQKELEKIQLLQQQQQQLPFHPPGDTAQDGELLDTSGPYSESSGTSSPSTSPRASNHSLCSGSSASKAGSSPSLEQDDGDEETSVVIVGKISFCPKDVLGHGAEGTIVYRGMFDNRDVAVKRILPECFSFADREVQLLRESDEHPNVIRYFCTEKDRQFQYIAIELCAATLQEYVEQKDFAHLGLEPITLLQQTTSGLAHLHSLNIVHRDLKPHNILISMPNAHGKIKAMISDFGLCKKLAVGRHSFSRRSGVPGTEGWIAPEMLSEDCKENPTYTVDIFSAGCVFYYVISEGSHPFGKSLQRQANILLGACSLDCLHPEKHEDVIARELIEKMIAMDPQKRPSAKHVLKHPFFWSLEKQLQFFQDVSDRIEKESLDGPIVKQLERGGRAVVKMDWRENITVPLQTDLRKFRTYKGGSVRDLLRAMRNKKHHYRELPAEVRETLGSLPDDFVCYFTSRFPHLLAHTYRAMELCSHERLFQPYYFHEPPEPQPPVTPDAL
Procedure: as §1

ACK1 = target: T23, ACK1 (Homo sapiens, UniProt Q07912)
T23 construct: purchased Reaction Biology Corporation (Kinase HotSpot)
Procedure: as §1

TIE2/TEK = target: T24, TIE2/TEK (Homo sapiens, UniProt Q02763)
T24 construct: purchased Reaction Biology Corporation (Kinase HotSpot)
T24 sequence (Q02763 23-1124): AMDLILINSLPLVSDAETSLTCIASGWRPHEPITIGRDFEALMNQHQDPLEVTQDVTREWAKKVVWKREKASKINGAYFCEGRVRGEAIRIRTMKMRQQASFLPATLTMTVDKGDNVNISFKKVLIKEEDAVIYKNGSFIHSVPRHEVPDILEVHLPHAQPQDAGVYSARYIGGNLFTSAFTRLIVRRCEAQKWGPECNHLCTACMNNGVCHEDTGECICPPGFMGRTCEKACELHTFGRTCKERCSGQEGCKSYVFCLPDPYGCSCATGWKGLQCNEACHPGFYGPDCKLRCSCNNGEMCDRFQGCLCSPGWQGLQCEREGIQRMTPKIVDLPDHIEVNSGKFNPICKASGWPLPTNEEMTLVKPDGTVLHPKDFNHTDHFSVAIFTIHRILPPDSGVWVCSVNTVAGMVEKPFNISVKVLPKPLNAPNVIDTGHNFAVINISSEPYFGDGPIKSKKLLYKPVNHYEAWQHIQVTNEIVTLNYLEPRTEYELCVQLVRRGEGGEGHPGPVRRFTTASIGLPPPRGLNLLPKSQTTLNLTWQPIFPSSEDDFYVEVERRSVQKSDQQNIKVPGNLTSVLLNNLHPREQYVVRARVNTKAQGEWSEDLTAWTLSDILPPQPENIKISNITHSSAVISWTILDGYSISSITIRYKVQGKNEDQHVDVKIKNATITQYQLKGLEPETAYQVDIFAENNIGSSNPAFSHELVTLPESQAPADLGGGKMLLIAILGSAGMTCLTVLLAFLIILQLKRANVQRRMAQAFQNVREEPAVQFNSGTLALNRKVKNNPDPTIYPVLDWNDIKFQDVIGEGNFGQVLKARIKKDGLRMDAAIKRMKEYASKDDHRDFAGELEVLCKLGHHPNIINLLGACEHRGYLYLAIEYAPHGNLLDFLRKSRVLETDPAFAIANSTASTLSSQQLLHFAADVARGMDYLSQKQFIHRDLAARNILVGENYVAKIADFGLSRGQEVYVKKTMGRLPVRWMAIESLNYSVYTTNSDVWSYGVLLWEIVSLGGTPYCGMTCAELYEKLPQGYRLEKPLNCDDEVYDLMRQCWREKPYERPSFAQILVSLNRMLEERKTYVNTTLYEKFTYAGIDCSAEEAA
Procedure: as §1

MEKK1 = target: T25, MEKK1 (Homo sapiens, UniProt Q13233)
T25 construct: purchased Reaction Biology Corporation (Kinase HotSpot)
Procedure: as §1

GRK2 = target: T26, GRK2 (Homo sapiens, UniProt P25098)
T26 construct: purchased Reaction Biology Corporation (Kinase HotSpot)
Procedure: as §1

P38b/MAPK11 = target: T27, P38b/MAPK11 (Homo sapiens, UniProt Q15759)
T27 construct: purchased Reaction Biology Corporation (Kinase HotSpot)
T27 sequence (Q15759 whole entry): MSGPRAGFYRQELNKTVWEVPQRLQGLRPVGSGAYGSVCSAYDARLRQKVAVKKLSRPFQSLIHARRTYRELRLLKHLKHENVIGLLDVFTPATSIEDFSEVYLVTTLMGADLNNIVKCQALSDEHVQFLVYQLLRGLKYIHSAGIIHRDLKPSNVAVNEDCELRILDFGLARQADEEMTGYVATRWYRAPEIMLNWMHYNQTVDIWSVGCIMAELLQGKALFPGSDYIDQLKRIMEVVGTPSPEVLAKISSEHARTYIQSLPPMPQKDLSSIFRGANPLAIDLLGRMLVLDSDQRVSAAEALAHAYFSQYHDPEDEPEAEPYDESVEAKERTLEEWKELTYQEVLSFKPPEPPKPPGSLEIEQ
Procedure: as §1

NEK8 = target: T28, NEK8 (Homo sapiens, UniProt Q86SG6)
T28 construct: purchased Reaction Biology Corporation (Kinase HotSpot)
Procedure: as §1

WEE1 = target: T29, WEE1 (Homo sapiens, UniProt P30291)
T29 construct: purchased Reaction Biology Corporation (Kinase HotSpot)
Procedure: as §1

FER = target: T30, FER (Homo sapiens, UniProt P16591)
T30 construct: purchased Reaction Biology Corporation (Kinase HotSpot)
Procedure: as §1

Cc1cnc(N[C@H]2CC[C@H](N)CC2)nc1-c1cnc2ccc(-c3ccccc3)cn12 [CDDD11-8]
remaining activity at 1 µM (YSK4/MAP3K19): 63.5%
remaining activity at 1 µM (RSK4): 43.4%
remaining activity at 1 µM (EGFR): 82.2%
remaining activity at 1 µM (CDK1/cyclin A): 78%
remaining activity at 1 µM (CHK1): 95.2%
remaining activity at 1 µM (MLK2/MAP3K10): 76.5%
remaining activity at 1 µM (MNK2): 83.5%
remaining activity at 1 µM (CAMKK1): 76.5%
remaining activity at 1 µM (CK2a): 80.3%
remaining activity at 1 µM (GSK3b): 94.5%
remaining activity at 1 µM (RIPK4): 72.6%
remaining activity at 1 µM (WNK1): 90%
remaining activity at 1 µM (MRCKb/CDC42BPB): 79.3%
remaining activity at 1 µM (CAMK2d): 17.3%
remaining activity at 1 µM (DAPK2): 81.2%
remaining activity at 1 µM (ROCK1): 76.3%
remaining activity at 1 µM (DRAK1/STK17A): 92.5%
remaining activity at 1 µM (KHS/MAP4K5): 20.3%
remaining activity at 1 µM (EPHA8): 83.5%
remaining activity at 1 µM (JAK1): 93.3%
remaining activity at 1 µM (SRPK2): 95.3%
remaining activity at 1 µM (ERN1/IRE1): 41.8%
remaining activity at 1 µM (ACK1): 64.5%
remaining activity at 1 µM (TIE2/TEK): 61.2%
remaining activity at 1 µM (MEKK1): 103%
remaining activity at 1 µM (GRK2): 95.9%
remaining activity at 1 µM (P38b/MAPK11): 98.4%
remaining activity at 1 µM (NEK8): 72.8%
remaining activity at 1 µM (WEE1): 94.3%
remaining activity at 1 µM (FER): 70%
